This is an account of results in article PMC8876800, “Neuropsychopharmacology of Emerging Drugs of Abuse: meta- and para-Halogen-Ring-Substituted α-PVP (“flakka”) Derivatives” (International Journal of Molecular Sciences, 2022).

In general, Ki refers to a measure of affinity in units of concentration, obtained from inhibition or displacement. Broadly, the IC50 is the concentration that inhibits the measured activity by half.

Bounds are passed on as bounds.

The test system of test [1] is Swiss CD-1 mice. Briefly: Open field test: center vs. periphery (anxiety-like behavior). The test is classed as in vivo. The conditions noted are these: for acute anxiogenic effect (time in center of open field): 2.5, 10 and 25 mg kg−1 i.p., acute administration. The method, then: (§1) Male Swiss CD-1 mice (Janvier, Le Genest, France) weighing 30–35 g (6–8 weeks old) were randomly assigned to an experimental group. The animals were housed (seven per cage) in polycarbonate cages with wood-derived bedding, in temperature-controlled conditions (22 ± 1 °C) under a 12 h light/dark cycle and had ad libitum access to food (standard laboratory diet, Panlab SL, Barcelona, Spain) and drinking water. All animal care and experimental protocols in this study were approved by the Animal Ethics Committee of the University of Barcelona under the supervision of the Autonomous Government of Catalonia and are in accordance with the guidelines of the European Community Council (2010/63/EU), as amended by Regulation (EU) 2019/1010. Efforts were made to minimize animal use and suffering. All studies involving animals comply with the ARRIVE guidelines. The animals were supervised before and throughout the study, immediately after injection, and during the behavioral experiment as well as 24 h after injection, and different parameters were visually evaluated for humane endpoints, such as abnormal posture, greater loss than 20%, self-mutilations, and strange vocalizations.
Open-field experiments are straight-forward tests that evaluate the animals’ activity in response to novelty (or anxiogenic environment) and pharmacological treatments. Each animal was placed into the center of an open field arena, with sufficient height to prevent the animals from escaping (25 cm length × 25 cm width × 40 cm height), and the time spent (in seconds) in the center (8 × 8 cm) or the periphery of the arena was monitored for 60 min (Smart 3.0 Panlab, Barcelona, Spain).
(§2) Data were expressed as mean ± SEM. […] High ratios indicate greater selectivity for DAT.

In test [2] the test system is Swiss CD-1 mice. The experiment in a line: Conditioned place preference (CPP). The conditions noted are these: for CPP rewarding effects vs saline: highest dose 25 mg kg−1 i.p. It is filed as in vivo. The method, then: as §1
A place conditioning paradigm was used to determine the potential of the seven α-PVP derivatives to induce rewarding effects. The apparatus that is used for this test consists of two compartments, with differences in tactile and visual cues, communicated by a central corridor. Conditioned place preference (CPP) was performed as described by. Briefly, CPP was performed in three phases: preconditioning test and conditioning and post-conditioning test. During the preconditioning phase, mice had free access to both compartments during 15 min, and the time spent in each compartment was recorded and monitored (Smart 3.0 Panlab, Barcelona, Spain). During the conditioning phase (8 sessions), access to the corridor was closed, and mice received an i.p. injection of the corresponding α-PVP derivative and were immediately placed into one of the compartments for 20 min. The doses tested are in accordance with the ones used in the HLA experiment. On the alternative session, mice were placed for 20 min in the other compartment after receiving a saline i.p. injection. Mice in the control group received a saline injection in every session. The compartment and session in which mice received the drug was randomized. On the test day (post-conditioning phase), the same conditions as in the pre-conditioning phase applied. A preference score, expressed in seconds, was calculated as the difference between the time spent in the drug-paired compartment in the post-conditioning test minus the time spent in the preconditioning phase.
as §2

Test [3] concerns the target T1, hSERT (Homo sapiens, UniProt P31645). Briefly: Transporter binding assay, [3H]imipramine displacement in HEK293 membranes. Also on record: expressed in transfected cells. The method, then: (§3) To prepare membranes, HEK293 cells expressing monoamine transporters were harvested from 80–90% confluent dishes. In short, cells were washed with ice-cold phosphate buffered saline (PBS) twice. An extra 5 mL of PBS was added, and cells were mechanically detached using a plastic scraper and subsequently pelleted by centrifugation (400× g for 10 min at 4 °C). The resulting pellet was resuspended in hypotonic HME buffer (20 mM HEPES NaOH, 1 mM EDTA, 2 mM MgCl2; pH 7.4) and then subjected to two freeze-thaw cycles in liquid nitrogen and homogenization through sonication at 4 °C. Membranes were collected by centrifugation (40,000× g for 30 min at 4 °C) and resuspended in an appropriate volume of HME buffer. Protein concentration was determined using the Bio-Rad Protein Reagent (Bio Rad Laboratories, Hercules, CA, USA). Membrane preparations were kept at −80 °C.
(§4) This non-specific binding also allows subtracting the binding to other components such as the microfiber filters or membrane lipids from the total binding values. Incubation was performed for 1 h at 22 °C. […] The filters were then placed into vials and scintillation cocktail was added. The trapped radioactivity was quantified by liquid scintillation counting. Specific binding of each drug to the transporter was defined as the difference between total binding (binding buffer in absence of drug) and non-specific binding.
as §2

Test [4] addresses T1, hSERT. Briefly: Uptake inhibition assay, [3H]5-HT uptake in transfected HEK293 cells.
In test [5] the target is T2, hDAT (Homo sapiens, UniProt Q01959). The experiment in a line: Transporter binding assay, [3H]WIN35,428 displacement in HEK293 membranes. Set-up: expressed in transfected cells. The conditions noted are these: for hDAT/hSERT Affinity Ratio: ratio of binding affinities at hDAT and hSERT. The method, then: as §3
as §4, with “(hSERT assay, final concentration 3 nM)) diluted in the corresponding reaction buffer, 15 µg of membranes in 100 µL of reaction buffer, and 125 µL of the tested drug dilution. […] This” for “This”
Data were expressed as mean ± SEM.

Test [6] concerns the target T2, hDAT. The experiment in a line: Uptake inhibition assay, [3H]MPP+ uptake in transfected HEK293 cells. The conditions noted are these: for potency at inhibiting DAT relative to cocaine: [3H]MPP+ uptake at hDAT, vs cocaine.
For test [7], the system named is Swiss CD-1 mice. Briefly: Horizontal locomotor activity (HLA). The conditions noted are these: for HLA vs saline group: 2.5 mg kg−1 i.p., distance travelled in 60 min; for duration of the increase in locomotor activity: medium dose 10 mg kg−1 i.p., time course. It is filed as in vivo. On the procedure:
as §1
A habituation phase was performed to reduce the novelty and stress associated with handling and injection. In this habituation phase, all mice received, for two consecutive days, an intraperitoneal (i.p.) saline injection and were then placed into a black Plexiglass open field arena (25 × 25 × 40 cm) under low-light conditions and white noise for 30 min. On the test day, the horizontal locomotor activity (HLA) produced by the tested cathinones was measured as described by, with minor modifications. Briefly, the animals received the corresponding i.p. injection (saline 5 mL kg^−1, 3-F-α-PVP, 4-F-α-PVP, 3-Cl-α-PVP, 4-Cl-α-PVP, 3,4-Cl2-α-PVP, 3-Br-α-PVP or 4-Br-α-PVP 2.5, 10 or 25 mg kg^−1 and were immediately placed in the open field arena with the same conditions of light and noise. HLA was video-monitored for 1 h, and their total travelled distance (in cm) was measured using a specific tracking software (Smart 3.0 Panlab, Barcelona, Spain).
as §2

T1 sequence (P31645 whole entry): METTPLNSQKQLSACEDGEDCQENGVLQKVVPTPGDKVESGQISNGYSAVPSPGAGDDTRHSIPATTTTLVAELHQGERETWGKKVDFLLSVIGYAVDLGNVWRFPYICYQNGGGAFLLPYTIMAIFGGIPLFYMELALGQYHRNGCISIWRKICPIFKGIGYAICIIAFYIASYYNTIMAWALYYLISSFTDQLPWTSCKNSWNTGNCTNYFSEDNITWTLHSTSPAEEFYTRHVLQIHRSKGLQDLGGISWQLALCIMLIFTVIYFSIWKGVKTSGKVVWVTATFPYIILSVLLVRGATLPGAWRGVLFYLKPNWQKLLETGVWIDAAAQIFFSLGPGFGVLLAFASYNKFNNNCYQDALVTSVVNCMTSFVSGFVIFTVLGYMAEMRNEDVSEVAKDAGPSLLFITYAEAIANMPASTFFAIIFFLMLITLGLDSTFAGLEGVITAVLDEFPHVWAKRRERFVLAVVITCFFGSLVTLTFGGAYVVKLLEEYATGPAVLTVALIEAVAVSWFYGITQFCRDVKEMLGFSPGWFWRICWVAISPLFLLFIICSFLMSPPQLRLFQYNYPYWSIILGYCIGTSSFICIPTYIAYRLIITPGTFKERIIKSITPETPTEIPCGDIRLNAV
T2 sequence (Q01959 whole entry): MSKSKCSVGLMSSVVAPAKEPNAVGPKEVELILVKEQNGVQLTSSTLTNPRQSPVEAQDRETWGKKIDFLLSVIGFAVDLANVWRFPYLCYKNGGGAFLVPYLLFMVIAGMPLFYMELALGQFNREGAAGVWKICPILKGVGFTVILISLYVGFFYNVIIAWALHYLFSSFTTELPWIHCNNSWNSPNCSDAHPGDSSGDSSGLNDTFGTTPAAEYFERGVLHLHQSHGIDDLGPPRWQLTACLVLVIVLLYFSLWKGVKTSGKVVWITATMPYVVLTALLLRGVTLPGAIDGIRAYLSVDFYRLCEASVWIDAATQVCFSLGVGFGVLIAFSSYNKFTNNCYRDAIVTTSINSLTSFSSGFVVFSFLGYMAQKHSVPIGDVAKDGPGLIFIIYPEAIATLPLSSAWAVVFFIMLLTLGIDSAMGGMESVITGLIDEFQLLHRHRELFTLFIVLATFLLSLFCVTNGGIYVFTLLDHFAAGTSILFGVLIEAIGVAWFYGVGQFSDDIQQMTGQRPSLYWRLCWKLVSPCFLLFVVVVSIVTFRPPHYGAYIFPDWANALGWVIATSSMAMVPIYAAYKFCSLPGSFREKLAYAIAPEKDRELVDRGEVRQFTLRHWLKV

As to `CCCC(C(=O)c1ccc(Cl)c(Cl)c1)N1CCCC1` (stereo not drawn) [3,4-Cl-α-PVP, 3,4-Dichloro-α-Pyrrolidinopentiophenone], in test [1], the “acute anxiogenic effect (time in center of open field)” value (“acute anxiogenic effect” for short) is given as “anxiogenic effect”. The “CPP rewarding effects vs saline” value in test [2] is “significant increase of the rewarding effects”. The same molecule gave a Ki in test [3] of 4990 nM. In addition, the IC50 in test [4] came to 12700 nM. In test [5], the affinity, expressed as Ki, was 11 nM and the “hDAT/hSERT Affinity Ratio” value is on record as 462. For the same molecule, in test [6], the midpoint of inhibition, the IC50, lay at 266 nM and the “hDAT/hSERT Inhibition Ratio” value is given as 47.
On to `CCCC(C(=O)c1cccc(Br)c1)N1CCCC1` (stereo not drawn) [3-Br-α-PVP, 3-Bromo-α-Pyrrolidinopentiophenone], for which the “acute anxiogenic effect” value in test [1] is listed as “anxiogenic effect”. Also, the “CPP rewarding effects vs saline” value in test [2] was “significant increase of the rewarding effects”. Further, the “CPP rewarding properties vs saline” value in test [2] (lowest dose 2.5 mg kg−1 i.p.) is recorded as “did not show rewarding properties”. The molecule also yielded a Ki in test [3] of 5600 nM. Further, in test [4], half-maximal inhibition (IC50) was put at 40000 nM. For the same molecule, in test [5], the Ki was 12 nM and the “hDAT/hSERT Affinity Ratio” value is listed as 470. Further, in test [6], the half-maximal inhibitory concentration (IC50) was determined as 117 nM, the “potency at inhibiting DAT relative to cocaine” value is on record as 2 fold and the “hDAT/hSERT Inhibition Ratio” value was found to be 341.
`CCCC(C(=O)c1cccc(Cl)c1)N1CCCC1` (stereo not drawn) [3-Cl-α-PVP, 3-Chloro-α-Pyrrolidinopentiophenone]: in test [1] (2.5 mg kg−1 i.p.), the “time in center of open field at the lowest dose” value is given as “anxiogenic effects”. Moreover, in test [1], the “acute anxiogenic effect” value is recorded as “anxiogenic effect”. The “HLA vs saline group” value in test [7] is listed as “significant effect”. Moreover, the “HLA dose-response at the highest dose” value in test [7] (25 mg kg−1 i.p.) was “ceiling effect”. Moreover, in test [2], the “CPP rewarding effects vs saline” value is on record as “did not induce significant rewarding effects”. In test [3], this molecule yielded a Ki of 16400 nM. Moreover, the IC50 in test [4] was determined as 33300 nM. In test [5], the Ki came to 13 nM and the “hDAT/hSERT Affinity Ratio” value is given as 1234. In test [6], half-maximal inhibition (IC50) was put at 349 nM and the “hDAT/hSERT Inhibition Ratio” value came to 95.
On to `CCCC(C(=O)c1cccc(F)c1)N1CCCC1` (stereo not drawn) [3-F-α-PVP, 3-Fluoro-α-Pyrrolidinopentiophenone], for which the “acute anxiogenic effect” value in test [1] is listed as “anxiogenic effect”. The “HLA vs saline group” value in test [7] is given as “significant effect”. For the same molecule, in test [3], the Ki is 63500 nM. Further, the IC50 in test [4] was over 100000 nM. Moreover, in test [5], the Ki is 14 nM and the “hDAT/hSERT Affinity Ratio” value was found to be 4540. Moreover, in test [6], the IC50 was found to be 132 nM, the “potency at inhibiting DAT relative to cocaine” value turned out to be 2 fold and the “hDAT/hSERT Inhibition Ratio” value was 1819.
As to `CCCC(C(=O)c1ccc(Br)cc1)N1CCCC1` (stereo not drawn) [4-Br-α-PVP, 4-Bromo-α-Pyrrolidinopentiophenone], the “acute anxiogenic effect” value in test [1] was “did not cause acute anxiogenic effects”. The “duration of the increase in locomotor activity” value in test [7] is under 60 min. Further, the “CPP rewarding effects vs saline” value in test [2] was “significant increase of the rewarding effects”. In test [3], this molecule displayed a Ki of 1250 nM. The IC50 in test [4] was found to be 23100 nM. Also, in test [5], the Ki came out at 24 nM and the “hDAT/hSERT Affinity Ratio” value is on record as 52. In test [6], the IC50 came to 156 nM, the “potency at inhibiting DAT relative to cocaine” value turned out to be 2 fold and the “hDAT/hSERT Inhibition Ratio” value was 148.
As for `CCCC(C(=O)c1ccc(Cl)cc1)N1CCCC1` (stereo not drawn) [4-Cl-α-PVP, 4-Chloro-α-Pyrrolidinopentiophenone], the “acute anxiogenic effect” value in test [1] is listed as “anxiogenic effect”. For the same molecule, the “duration of the increase in locomotor activity” value in test [7] is recorded as under 60 min. For the same molecule, the “CPP rewarding effects vs saline” value in test [2] is reported as “did not induce significant rewarding effects”. In test [3], this molecule showed an inhibitory constant (Ki) of 7900 nM. Further, the IC50 in test [4] came to 15200 nM. Also, in test [5], affinity was put at a Ki of 16 nM and the “hDAT/hSERT Affinity Ratio” value was 478. In test [6], inhibition was half-maximal at 391 nM (IC50) and the “hDAT/hSERT Inhibition Ratio” value came to 38.
For the molecule `CCCC(C(=O)c1ccc(F)cc1)N1CCCC1` (stereo not drawn) [4-F-α-PVP, 4-Fluoro-α-Pyrrolidinopentiophenone], in test [1] (25 mg kg−1 i.p., effect only at this dose), the “time in center of open field at the highest dose” value was “decrease in the time spent in the center”. Also, the “acute anxiogenic effect” value in test [1] is “anxiogenic effect”. The “CPP rewarding effects vs saline” value in test [2] was “significant increase of the rewarding effects”. In test [3], the Ki stood at 57900 nM. Further, the IC50 in test [4] is over 100000 nM. In test [5], affinity was put at a Ki of 49 nM and the “hDAT/hSERT Affinity Ratio” value worked out at 1173. Further, in test [6], the IC50 was found to be 154 nM, the “potency at inhibiting DAT relative to cocaine” value worked out at 2 fold and the “hDAT/hSERT Inhibition Ratio” value is listed as 1366.
The molecule `CCCC(C(=O)c1ccccc1)N1CCCC1` (stereo not drawn) [α-PVP, α-Pyrrolidinopentiophenone] came in with an inhibition constant Ki in test [3] of over 100000 nM. The molecule further returned an IC50 in test [4] of over 100000 nM. In test [5], the Ki turned out to be 17 nM and the “hDAT/hSERT Affinity Ratio” value is on record as 8514. For the same molecule, in test [6], inhibition was half-maximal at 129 nM (IC50) and the “hDAT/hSERT Inhibition Ratio” value came to 3418.
